Values of other authors as cited in patent US20100113478A1, “INDOLONE MODULATORS OF 5-HT3 RECEPTOR” (AUSPEX PHARMACEUTICALS, INC., priority 2008, published 2010).

Conditions: women compared with men

Compound: Cc1[nH]cnc1CN1CCc2c(c3ccccc3n2C)C1=O [alosetron, 5-methyl-2-((5-methyl-1H-imidazol-4-yl)methyl)-2,3,4,5-tetrahydro-1H-pyrido[4,3-b]indol-1-one]
- alosetron clearance lower in women than in men: 30%
